Results as given in patent publication US20100136029A1, “Use of Tri-Substituted Glycerol Compounds for the Treatment of Hematological Malignancies” (UNIVERSITATSKLINIKUM HAMBURG-EPPENDORF, priority 2006, published 2010).
Entries after “also recorded” stand apart in the source; their conditions may differ.

Columns and labels:
Jurkat cells = assay: cells; conditions: Homo sapiens, 20 h
Description: Cell culture was performed as described in FIG. 1. ET-18-OCH3 was added in a final concentration of 2.5 or 5.0 μg/ml (“E2.5” and “E5”, respectively) without or in combination with 5 or 10 ng/ml bortezomib (“Vel5” and “Vel10”, respectively), and the cells were incubated for 20 h. Cell death was assessed as described in FIG. 1. The results are expressed as mean±SEM of three independent experiments.
(§1) The following human cell lines were used: • 1. KMS-12-BM (DMSZ no. ACC 551), bone marrow cells; myeloma/plasmacytoma; none of the genetic alterations defined herein; Chesi, M. et al. (2001), supra. • 2. K562 (ATCC no. CCL-243); bone marrow cells; CML; none of the genetic alterations defined herein; Delgado, M. D. et al. (2001), supra. • 3. […] OPM-2 (ATCC no. CRL-13007); lymphoblast cells; myeloma; t(4;14) chromosomal translocation; K650E FGFR3 gene mutation (AAG→GAG at codon 650); Chesi, M. et al. (2001), supra. • 5. NCI-H929 (ATCC no. CRL-9068); bone marrow cells; myeloma/plasmacytoma; t(4;14) chromosomal translocation; N13-G>D N-ras gene mutation (GGT→GAT at codon 13); Chesi, M. et al. (2001), supra. • 6. U266 (ATCC no. TIB-196); peripheral blood cells; myeloma/plasmacytoma; none of the genetic alterations defined herein; Chesi, M. et al. (2001), supra. • 7. HL60 (ATCC no. CCL-240); peripheral blood cells; AML; N61-Q>R N-ras gene mutation (CAA→CGA at codon 61); Bos, J. L. et al. (1984), supra. • 8. Jurkat (ATCC no. TIB-152); peripheral blood cells; ALL; 2 by deletion and 9 by insertion at codon 234 in exon 7 of the PTEN gene (resulting in downstream stop codons); Sakai, A. et al. (1998), supra.
(§2) The cells were grown in 96-well tissue culture plates in a volume of 200 μl to a concentration of 1×10^6 cells/ml. Then, the cells were incubated for 20 h with a final concentration of 5 μg/ml, 10 μg/ml, and 20 μg/ml 1-O-octadecyl-2-O-methyl-glycero-3-phosphocholine (ET-18-OCH3), respectively. Cell death was assessed by staining the cells with 7-amino-actinomycin D (Calbiochem, Darmstadt, Germany; final concentration 200 μg/ml) and analyzed via flow cytometry using a FACS-Scan flow cytometer (BD Biosciences, San Jose, Calif., USA) as described (see, e.g., Schmid, I. et al. (1994) J. Immunol. Meth. 170, 145-157; Ayuk, F. A. et al. (2005) Exp. Hematol. 33, 1531-1536).
(§3) The cells were again grown in 96-well tissue culture plates in a volume of 200 μl to a concentration of 1×10^6 cells/ml. Then, the cells were incubated for 20 h with the respective drugs. […] The cytotoxic effect of ET-18-OCH3 in combination with bortezomib was determined in Jurkat, HL60 cells, and RPMI8226 cell, whereas the cytotoxic effect of ET-18-OCH3 in combination with cytarabine, fludarabine and etoposide, respectively, in Jurkat and HL60 cells. Cell death was assessed as described in example 1.

HL60 cells = assay: Cytotoxicity (cell death) by 7-amino-actinomycin D staining and flow cytometry, HL60 cells
Description: (§4) The following cell lines were used: KMS-12-BM, K562, RPMI8226, OPM-2, NCI-H929, U266, and HL60. The cells were grown in 96-well tissue culture plates in a volume of 200 μl to a concentration of 1×10^6 cells/ml. Then, the cells were incubated for 20 h with 5 μg/ml, 10 μg/ml, and 20 μg/ml ET-18-OCH3 (final concentrations), respectively. Cell death was assessed by staining the cells with 7-amino-actinomycin D (final concentration 200 μg/ml) and analyzed via flow cytometry as described (see, e.g., Schmid, I. et al. (1994) J. Immunol. Meth. 170, 145-157; Ayuk, F. A. et al. (2005) Exp. Hematol. 33, 1531-1536).
as §1, §2, §3

RPMI8226 = assay: Cytotoxicity (cell death) by 7-amino-actinomycin D staining and flow cytometry, RPMI8226 cells
Description: as §4, §1, §2, §3

NCI-H929 = assay: Cytotoxicity (cell death) by 7-amino-actinomycin D staining and flow cytometry, NCI-H929 cells; format: cell-based
Excerpt: (§5) The following human cell lines were used: • 1.

OPM-2 cells = assay: Cytotoxicity (cell death) by 7-amino-actinomycin D staining and flow cytometry, OPM-2 cells; format: cell-based
Excerpt: as §5

K562 = assay: Cytotoxicity (cell death) by 7-amino-actinomycin D staining and flow cytometry, K562 cells; format: cell-based, human; conditions: K562, 20 h, 5, 10 and 20 μg/ml ET-18-OCH3, FIG. 1
Excerpt: as §5

U266 cells = assay: Cytotoxicity (cell death) by 7-amino-actinomycin D staining and flow cytometry, U266 cells; format: cell-based, human; conditions: U266, 20 h, 5, 10 and 20 μg/ml ET-18-OCH3, FIG. 1
Excerpt: as §5

KMS-12-BM = assay: Cytotoxicity (cell death) by 7-amino-actinomycin D staining and flow cytometry, KMS-12-BM cells; format: cell-based, human; conditions: 20 h, 5, 10 and 20 μg/ml ET-18-OCH3, FIG. 1
Excerpt: as §5

Compound: COc1cc([C@@H]2c3cc4c(cc3[C@@H](O[C@@H]3O[C@@H]5CO[C@@H](C)O[C@H]5[C@H](O)[C@H]3O)[C@H]3COC(=O)[C@H]23)OCO4)cc(OC)c1O [Etoposide, etoposide]
- cytotoxicity at 1 µM (Jurkat cells): 5.9 ± 1.1%
- cytotoxicity at 2.5 µM (Jurkat cells): 10 ± 0.8%
- cytotoxicity at 5 µM (Jurkat cells): 16.8 ± 8.4%
- cytotoxicity at 1 µM (HL60 cells; Homo sapiens, HL-60, 20 h): 4.1 ± 0.7%
- cytotoxicity at 2.5 µM (HL60 cells; Homo sapiens, HL-60, 20 h): 10.7 ± 5.4%
- cytotoxicity at 5 µM (HL60 cells; Homo sapiens, HL-60, 20 h): 23.3 ± 8.2%

Compound: Nc1ccn([C@@H]2O[C@H](CO)[C@@H](O)[C@@H]2O)c(=O)n1 [Cytarabine, cytarabine]
- cytotoxicity at 10 µM (Jurkat cells): 11.1 ± 0.5%
- cytotoxicity at 40 µM (Jurkat cells): 12.4 ± 1.2%
- cytotoxicity at 10 µM (HL60 cells; Homo sapiens, HL-60, 20 h): 24 ± 2.8%
- cytotoxicity at 40 µM (HL60 cells; Homo sapiens, HL-60, 20 h): 26.9 ± 5%

Compound: CC(C)C[C@H](NC(=O)[C@H](Cc1ccccc1)NC(=O)c1cnccn1)B(O)O [Bortezomib, bortezomib]
- cytotoxicity at 0.005 µg/mL (RPMI8226; Homo sapiens, RPMI-8226, 20 h): 7.3 ± 4.5%
- cytotoxicity at 0.01 µg/mL (RPMI8226; Homo sapiens, RPMI-8226, 20 h): 25.1 ± 4%
- cytotoxicity at 0.005 µg/mL (Jurkat cells): 0.4 ± 0.5%
- cytotoxicity at 0.01 µg/mL (Jurkat cells): 3.6 ± 1.4%
- cytotoxicity at 0.005 µg/mL (HL60 cells; Homo sapiens, HL-60, 20 h): 2.7 ± 1.9%
- cytotoxicity at 0.01 µg/mL (HL60 cells; Homo sapiens, HL-60, 20 h): 10.9 ± 3.7%

Compound: CCCCCCCCCCCCCCCCCCOCC(COP(=O)([O-])OCC[N+](C)(C)C)OC (stereo not shown) [ET-18-OCH3, 1-O-octadecyl-2-O-methyl-glycero-3-phosphocholine]
- cell death in words (NCI-H929; NCI-H929, 20 h, 20 μg/ml ET-18-OCH3, FIG. 1): almost complete cell death
- cytotoxic effect, dose dependence (NCI-H929; NCI-H929, 20 h, 5, 10 and 20 μg/ml ET-18-OCH3, FIG. 1): dose-dependent effect
- cells died (OPM-2 cells; OPM-2, 20 h, 20 μg/ml ET-18-OCH3, FIG. 1): about 75%
- cytotoxic effect, dose dependence (OPM-2 cells; OPM-2, 20 h, 5, 10 and 20 μg/ml ET-18-OCH3, FIG. 1): dose-dependent effect
- cytotoxic effect (cell death) in words (K562): dose-dependent effect; also recorded: significantly reduced or even almost abolished
- cytotoxicity at 2.5 µg/mL (RPMI8226; Homo sapiens, RPMI-8226, 20 h): 11.2 ± 8.1%
- cytotoxicity at 5 µg/mL (RPMI8226; Homo sapiens, RPMI-8226, 20 h): 34.7 ± 13.2%
- cell death in words (RPMI8226; RPMI8226, 20 h, 20 μg/ml ET-18-OCH3, FIG. 1): almost complete cell death
- cytotoxic effect, dose dependence (RPMI8226; RPMI8226, 20 h, 5, 10 and 20 μg/ml ET-18-OCH3, FIG. 1): dose-dependent effect
- cytotoxic effect (cell death) in words (U266 cells): do not respond to ET-18-OCH3 at all; also recorded: significantly reduced or even almost abolished
- cytotoxicity at 2.5 µg/mL (Jurkat cells): 2.1 ± 1%
- cytotoxicity at 5 µg/mL (Jurkat cells): 13.1 ± 5.3%
- cytotoxic effect, dose dependence (HL60 cells): dose-dependent effect
- cell death in words (HL60 cells; HL60, 20 h, 20 μg/ml ET-18-OCH3, FIG. 1): almost complete cell death
- cytotoxicity at 2.5 µg/mL (HL60 cells; Homo sapiens, HL-60, 20 h): 11.3 ± 7.3%
- cytotoxicity at 5 µg/mL (HL60 cells; Homo sapiens, HL-60, 20 h): 35 ± 15.9%
- cytotoxic effect (cell death) in words (KMS-12-BM): significantly reduced or even almost abolished; also recorded: dose-dependent effect

Compound: Nc1nc(F)nc2c1ncn2[C@@H]1O[C@H](CO)[C@@H](O)[C@@H]1O [Fludarabine, fludarabine]
- cytotoxicity at 10 µM (Jurkat cells): 2.4 ± 0.9%
- cytotoxicity at 50 µM (Jurkat cells): 6.2 ± 2.4%
- cytotoxicity at 10 µM (HL60 cells; Homo sapiens, HL-60, 20 h): 13.8 ± 9.4%
- cytotoxicity at 50 µM (HL60 cells; Homo sapiens, HL-60, 20 h): 37.2 ± 4.6%
